Assay results as given in paper PMC7594047, “Synthesis of a New Class of Spirooxindole–Benzo[b]Thiophene-Based Molecules as Acetylcholinesterase Inhibitors” (Molecules, 2020).
Read-outs that look alike come from different tables or passages of the source.

Legend:
AChE = conditions: cited from earlier work
[1] = target: T1, acetylcholinesterase enzyme from electric eel (Electrophorus electricus, UniProt O42275); test: Acetylcholinesterase (AChE) inhibitory assay (DTNB/acetylthiocholine iodide, absorbance at 412 nm); type: biochemical; conditions: for inhibition at 1.56 µg/mL: Conc 1.56 ug/ml; for inhibition at 3.125 µg/mL: Conc 3.125 ug/ml; for inhibition at 6.25 µg/mL: Conc 6.25 ug/ml; for inhibition at 12.5 µg/mL: Conc 12.5 ug/ml; for inhibition at 25 µg/mL: Conc 25 ug/ml; for inhibition at 50 µg/mL: Conc 50 ug/ml
T1 construct: purchased Sigma-Aldrich CAS Number 9000-81-1 (catalogue number not given)
Method: The in vitro cholinesterase inhibitory activity of the 14 synthesized spiro-oxindole derivatives (IIa–n) were evaluated. […] Galantamine was used as a positive control for comparison.
Acetylcholinesterase (AChE) inhibitory assay.
140 μL of 0.1 M sodium phosphate buffer of pH 8 was first added to a 96-wells microplate followed by 20 μL of test samples and 20 μL of 0.09 units/mL acetylcholinesterase enzyme from electric eel (Sigma-Aldrich, CAS Number 9000-81-1). After 15 min of incubation at 25 °C, 10 μL of 10 mM 5,5′-dithiobis-2-nitrobenzoic acid (DTNB, Sigma-Aldrich, CAS Number 69-78-3) was added into each well followed by 10 μL of 14 mM acetylthiocholine iodide (Sigma-Aldrich, CAS Number 1866-15-5). Thirty min after the initiation of enzymatic reaction, absorbance of the colored end-product was measured using StatFax-2100 microplate reader (Awareness Technology, Inc., USA) at 412 nm. Each test was conducted in triplicates. Test samples were prepared in DMSO at an initial concentration of 1 mg/mL (1000 ppm).
The concentration of DMSO in final reaction mixture was 1%.
The initial screening was carried out at 50 μg/mL of test samples in 1% DMSO. Absorbance of the test samples was corrected by subtracting the absorbance of their respective blank. Percentage enzyme inhibition is calculated using the following formula Percentage of inhibition = Absorbance of control - […]

[2] = read-out: IC50 value against AChE
[3] = supplement, six concentrations 1.56-50 μg/mL, read-out: IC50 (AchE inhibition) (converted)

T1 sequence (O42275 24-633): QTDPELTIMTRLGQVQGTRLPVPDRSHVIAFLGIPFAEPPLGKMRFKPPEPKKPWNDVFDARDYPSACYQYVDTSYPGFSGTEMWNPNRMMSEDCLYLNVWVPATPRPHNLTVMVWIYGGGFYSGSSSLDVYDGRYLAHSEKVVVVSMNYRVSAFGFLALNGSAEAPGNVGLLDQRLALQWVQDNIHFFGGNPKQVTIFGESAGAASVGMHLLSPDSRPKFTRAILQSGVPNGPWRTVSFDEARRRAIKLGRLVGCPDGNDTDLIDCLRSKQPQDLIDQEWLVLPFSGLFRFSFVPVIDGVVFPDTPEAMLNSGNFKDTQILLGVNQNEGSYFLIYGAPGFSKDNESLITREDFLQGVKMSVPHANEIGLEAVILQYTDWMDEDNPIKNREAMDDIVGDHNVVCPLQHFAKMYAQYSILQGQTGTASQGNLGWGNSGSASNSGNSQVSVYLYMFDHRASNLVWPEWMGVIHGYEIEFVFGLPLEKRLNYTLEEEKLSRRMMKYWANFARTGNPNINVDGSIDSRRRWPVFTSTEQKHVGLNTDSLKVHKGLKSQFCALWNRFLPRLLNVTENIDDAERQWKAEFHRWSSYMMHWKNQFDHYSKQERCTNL

Row | Compound | IC50 (AChE; positive control (STD), Table 1, read-out: AChE Inhibition IC50) [µM] | inhibition at 1.56 µg/mL [1] [%] | inhibition at 3.125 µg/mL [1] [%] | inhibition at 6.25 µg/mL [1] [%] | inhibition at 12.5 µg/mL [1] [%] | inhibition at 25 µg/mL [1] [%] | inhibition at 50 µg/mL [1] [%] | IC50 [1, 2] [µM] | IC50 [1, 3] [µM] | IC50 ([1]; Table 1, read-out: AChE Inhibition IC50) [µM] | AChE inhibitory activity IC50 (AChE; compound A) [µg/mL] | IC50 (AChE; compound A, read-out: AChE inhibitory activity IC50) [µM] | AChE inhibitory activity IC50 (AChE; compound B, Figure 1) [µg/mL]
2 | O=C(c1ccccc1)C1C(c2cc3ccccc3s2)C2CSCN2[C@@]12C(=O)Nc1ccc(Cl)cc12 (stereo partly drawn) [IIa, (3S)-7′-(Benzo[b]thiophen-2-yl)-6′-benzoyl-5-chloro-3′,6′,7′,7a’-tetrahydro-1′H-spiro[indoline-3,5′-pyrrolo[1,2-c]thiazol]-2-one] |  | 1.68 | 6.58 | 14.4 | 27.7 | 39 | 50.4 | > 70 | 85.6 |  |  |  | 
3 | O=C(c1ccccc1)C1C(c2cc3ccccc3s2)C2CSCN2[C@@]12C(=O)Nc1ccccc12 (stereo partly drawn) [IIb, (3S)-7′-(Benzo[b]thiophen-2-yl)-6′-benzoyl-3′,6′,7′,7a’-tetrahydro-1′H-spiro[indoline-3,5′-pyrrolo[1,2-c]thiazol]-2-one] |  | 2.76 | 8.12 | 16.2 | 25.6 | 40.9 | 51.5 | > 70 | 88.4 |  |  |  | 
4 | O=C(c1ccccc1)C1C(c2cc3ccccc3s2)C2C3CCCCC3CN2[C@@]12C(=O)Nc1ccc(Cl)cc12 (stereo partly drawn) [IIc, (3S)-1′-(Benzo[b]thiophen-2-yl)-2′-benzoyl-5-chloro-1′,2′,5′,5a’,6′,7′,8′,9′,9a’,9b’-decahydrospiro[indoline-3,3′-pyrrolo[2,1-a]isoindol]-2-one] |  | 13.9 | 29.9 | 43.5 | 54.5 | 61.6 | 70.3 |  | 20.8 |  |  |  | 
5 | O=C(c1ccc(Cl)cc1)C1C(c2cc3ccccc3s2)C2CSCN2[C@@]12C(=O)Nc1ccc(Cl)cc12 (stereo partly drawn) [IId, (3S)-7′-(Benzo[b]thiophen-2-yl)-5-chloro-6′-(4-chlorobenzoyl)-3′,6′,7′,7a’-tetrahydro-1′H-spiro[indoline-3,5′-pyrrolo[1,2-c]thiazol]-2-one] |  | 19.8 | 24.8 | 29.7 | 41.5 | 53.3 | 64 | 37.7 | 37.7 |  |  |  | 
6 | O=C(c1ccc(Cl)cc1)C1C(c2cc3ccccc3s2)C2CSCN2[C@@]12C(=O)Nc1ccccc12 (stereo partly drawn) [IIe, (3S)-7′-(Benzo[b]thiophen-2-yl)-6′-(4-chlorobenzoyl)-3′,6′,7′,7a’-tetrahydro-1′H-spiro[indoline-3,5′-pyrrolo[1,2-c]thiazol]-2-one] |  | 18.2 | 23.3 | 27.7 | 40.3 | 50.5 | 58.6 | 50.6 | 50.6 |  |  |  | 
7 | O=C(c1ccc(Cl)cc1)C1C(c2cc3ccccc3s2)C2C3CCCCC3CN2[C@@]12C(=O)Nc1ccc(Cl)cc12 (stereo partly drawn) [IIf, (3S)-1′-(Benzo[b]thiophen-2-yl)-5-chloro-2′-(4-chlorobenzoyl)-1′,2′,5′,5a’,6′,7′,8′,9′,9a’,9b’-decahydrospiro[indoline-3,3′-pyrrolo[2,1-a]isoindol]-2-one] |  | 16.1 | 24.4 | 34.9 | 43 | 53 | 63.1 | 34 | 34 |  |  |  | 
8 | O=C(c1ccc(F)cc1)C1C(c2cc3ccccc3s2)C2CSCN2[C@@]12C(=O)Nc1ccc(Cl)cc12 (stereo partly drawn) [IIg, (3S)-7′-(Benzo[b]thiophen-2-yl)-5-chloro-6′-(4-fluorobenzoyl)-3′,6′,7′,7a’-tetrahydro-1′H-spiro[indoline-3,5′-pyrrolo[1,2-c]thiazol]-2-one] |  | 23.4 | 30.3 | 41.5 | 51.8 | 59 | 68.3 | 23 | 23 |  |  |  | 
9 | O=C(c1ccc(F)cc1)C1C(c2cc3ccccc3s2)C2C3CCCCC3CN2[C@@]12C(=O)Nc1ccc(Cl)cc12 (stereo partly drawn) [IIh, (3S)-1′-(Benzo[b]thiophen-2-yl)-5-chloro-2′-(4-fluorobenzoyl)-1′,2′,5′,5a’,6′,7′,8′,9′,9a’,9b’-decahydrospiro[indoline-3,3′-pyrrolo[2,1-a]isoindol]-2-one] |  | 0.46 | 6.58 | 10.7 | 23.3 | 27.4 | 43 |  | 122 | 122 |  |  | 
10 | O=C(c1ccc(C(F)(F)F)cc1)C1C(c2cc3ccccc3s2)C2CSCN2[C@@]12C(=O)Nc1ccc(Cl)cc12 (stereo partly drawn) [IIi, (3S)-7′-(Benzo[b]thiophen-2-yl)-5-chloro-6′-(4-(trifluoromethyl)benzoyl)-3′,6′,7′,7a’-tetrahydro-1′H-spiro[indoline-3,5′-pyrrolo[1,2-c]thiazol]-2-one] |  | 1.23 | 7.35 | 12.7 | 26.2 | 38.7 | 52.4 |  | 72.4 |  |  |  | 
11 | O=C(c1ccc(C(F)(F)F)cc1)C1C(c2cc3ccccc3s2)C2CSCN2[C@@]12C(=O)Nc1ccccc12 (stereo partly drawn) [IIj, (3S)-7′-(Benzo[b]thiophen-2-yl)-6′-(4-(trifluoromethyl)benzoyl)-3′,6′,7′,7a’-tetrahydro-1′H-spiro[indoline-3,5′-pyrrolo[1,2-c]thiazol]-2-one] |  | 1.68 | 6.43 | 12.2 | 29.4 | 41 | 50.7 |  | 76 |  |  |  | 
12 | O=C(c1ccc(C(F)(F)F)cc1)C1C(c2cc3ccccc3s2)C2C3CCCCC3CN2[C@@]12C(=O)Nc1ccc(Cl)cc12 (stereo partly drawn) [IIk, (3S)-1′-(Benzo[b]thiophen-2-yl)-5-chloro-2′-(4-(trifluoromethyl)benzoyl)-1′,2′,5′,5a’,6′,7′,8′,9′,9a’,9b’-decahydrospiro[indoline-3,3′-pyrrolo[2,1-a]isoindol]-2-one] |  | 9.95 | 24.8 | 32.8 | 41.8 | 49.2 | 57.3 | 41.5 | 41.5 |  |  |  | 
13 | O=C(c1ccc(Br)cc1)C1C(c2cc3ccccc3s2)C2CSCN2[C@@]12C(=O)Nc1ccc(Cl)cc12 (stereo partly drawn) [IIl, (3S)-7′-(Benzo[b]thiophen-2-yl)-6′-(4-bromobenzoyl)-5-chloro-3′,6′,7′,7a’-tetrahydro-1′H-spiro[indoline-3,5′-pyrrolo[1,2-c]thiazol]-2-one] |  | 11.6 | 25.6 | 34.9 | 44.4 | 56.5 | 64.9 | 29.8 | 29.8 |  |  |  | 
14 | O=C(c1ccc(Br)cc1)C1C(c2cc3ccccc3s2)C2CSCN2[C@@]12C(=O)Nc1ccccc12 (stereo partly drawn) [IIm, (3S)-7′-(Benzo[b]thiophen-2-yl)-6′-(4-bromobenzoyl)-3′,6′,7′,7a’-tetrahydro-1′H-spiro[indoline-3,5′-pyrrolo[1,2-c]thiazol]-2-one] |  |  |  |  |  |  |  | 41.4 |  |  |  |  | 
15 | O=C(c1ccc(Br)cc1)C1C(c2cc3ccccc3s2)C2C3CCCCC3CN2[C@@]12C(=O)Nc1ccc(Cl)cc12 (stereo partly drawn) [IIn, (3S)-1′-(Benzo[b]thiophen-2-yl)-2′-(4-bromobenzoyl)-5-chloro-1′,2′,5′,5a’,6′,7′,8′,9′,9a’,9b’-decahydrospiro[indoline-3,3′-pyrrolo[2,1-a]isoindol]-2-one] |  | 15.6 | 23.4 | 32.5 | 41.8 | 50.1 | 61 | 36.8 | 36.8 |  |  |  | 
16 | O=C1/C(=C/c2ccc(Cl)cc2Cl)CN(C(=O)C2CC3CCCN3C23C(=O)Nc2cc(Cl)ccc23)C/C1=C\c1ccc(Cl)cc1Cl (stereo not shown) [compound A] |  |  |  |  |  |  |  |  |  |  | 2.37 ± 0.11 | 3.33 | 
17 | O=C1/C(=C/c2ccc(Cl)cc2)CN(C(=O)C2CC3CCCN3C23C(=O)Nc2ccccc23)C/C1=C\c1ccc(Cl)cc1 (stereo not shown) [compound B] |  |  |  |  |  |  |  |  |  |  |  |  | 2.28 ± 0.07
